# Values joined by “and” are separate entries in the source; they are usually repeats but may differ in a detail not shown here. Identical values can stand only once.
# What was measured:
# Assay type in all cases: in vivo
# [1] = system: wheat plants (Variety Skyfall); assay: Foliar treatment of greenhouse grown wheat, foliar and root biomass (Example 4); settings: foliar treatment, 30 days later, Zadocks growth stage 22-24
# Procedure: Wheat, corn and pepper seeds were treated with 6-oxo-1,4,5,6-tetrahydropyridizine-3-carboxylic acid (THP) using the same methodology and growth conditions as described in example 1 and the resulting plants were also treated with a light foliar cover spray using an electric hand-held sprayer. (100 g in 200 L water plus 0.25% Nouryon wetter) of 6-oxo-1,4,5,6 tetrahydropyridazine-3-carboxylic acid (30 days post emergence (wheat at Zadoks GS 14 (see FIG. 1), maize at V2, Pepper at 3-4 leaf stage) and then assessed for root and shoot biomass 45 days later. At 75 days post planting the plants were assessed for root and shoot biomass as measured with dry weight. Greenhouse grown wheat plants (Variety […]) were given foliar treatment of 1-methyl 6-oxo-1,4,5,6 tetrahydropyridazine-3-carboxylic acid (MTHP) or 6-oxo-1,4,5,6 tetrahydropyridazine-3-carboxylic acid (THP), utilizing the same methodology as in example 2. Foliar and root biomass were determined 30 days later at Zadocks growth stage 22-24.
# [2] = system: Wheat seeds (Var. VitPro); assay: Wheat seed treatment, leaf wilting under drought (Example 16); settings: Drought stress; for Wilted leaves: 0 mM: 40; for Total leaves: 0 mM: 47; for % Wilted leaves: 0 mM: 85%
# Procedure: Wheat seeds were treated with 6-oxo-1,4,5,6 tetrahydropyridazine-3-carboxylic and leaf wilting was tracked to examine the resistance to drought in the seedlings as shown in Table 6. Wheat seeds (Var. VitPro) were treated with an aqueous solution of either 0 mM, 1 mM, 0.5 mM, 0.1 mM or 0.01 mM 6-oxo-1,4,5,6 tetrahydropyridazine-3-carboxylic acid at pH 5.7-5.8. The 0 mM 6-oxo-1,4,5,6-tetrahydropyridizine-3-carboxylic acid seeds were imbibed in aqueous solution containing only the soft soap and glycerol. The plants were allowed to grow to Zadoks GS13 (FIG. 1) when water was withheld until plants in all of the treatments had wilted leaves.
# [3] = system: Soybean seeds (Var. Viking); assay: Soybean seed treatment, germination paper, shoot fresh weight (Example 10); settings: seeds imbibed three minutes in 0.01 mM; germination paper 75-85° F; two table lines, Control 98.3 and 106.2
# Procedure: Soybean seeds were treated with 6-oxo-1,4,5,6 tetrahydropyridazine-3-carboxylic acid and the weights of the shoots were determined as shown in Table 2. Early seedling emergence is important for early establishment of a vigorous and productive crop. Soybean seeds (Var. Viking) were treated by imbibing them for three minutes with a solution of 0.01 mM 6-oxo-1,4,5,6 tetrahydropyridazine-3-carboxylic acid in an aqueous solution also containing soft soap and glycerol at pH 5.7-5.8. The control seeds were imbibed in aqueous solution containing only the soft soap and glycerol at pH 5.7-5.8. The seeds were placed on moist germination paper and allowed to germinate at 75-85° F. The fresh weights were taken to assess the shoot development.
# Corn = assay: Foliar treatment dose series, root and shoot fresh weight, corn (Example 8); settings: 35 days post treatment; for Root, FWt: dose 0: 2.3; for Shoot, FWt: dose 0: 6.1
# Procedure: Corn and wheat plants were given a foliar treatment […] (as described in Example 2) with 6-oxo-1,4,5,6 tetrahydropyridazine-3-carboxylic acid (THP) and then assessed for root and shoot biomass. Three treatment dosages were applied (Table 2). Plants were grown in a greenhouse with a diurnal cycle of 55-75F with ambient light. The plants were grown in a coarse river sand in 4″ pots with 0.5 g of Osmacote/pot. The mean root and shoot fresh weights were assessed at 35 days post treatment.
# Wheat seeds [4] = assay: Wheat seed treatment, in vitro germination and early growth compared with Take Off (Example 11); settings: 10 g per ton of seed; petri dishes, 20C; FIG. 6
# Procedure: Referring to FIG. 6, illustrated are three photographs 600 of an In vitro assessment of the effects on the germination and early stage growth of wheat following treatment of naked wheat seed with of 6-oxo-1,4,5,6 tetrahydropyridazine-3-carboxylic acid. Untreated 610, THP 620 and a commercial seed treatment, Take Off® 630. The seed shown in 620 was grown under natural daylight conditions at 20-22 degrees Centigrade. Wheat seeds were treated with 6-oxo-1,4,5,6 tetrahydropyridazine-3-carboxylic acid or a commercial seed treatment at labeled rates (Take Off ST) and allowed to germinate to examine and compare the effects of temperature on germination. Wheat seeds were treated with 6-oxo-1,4,5,6 tetrahydropyridazine-3-carboxylic acid or Take Off, a commercial biostimulant (that claims faster germination and emergence). The treated seeds received the treatment compounds at the rate of 10 g per ton of seed utilizing the same dosing methodology as Example 1. However in this case seeds were germinated on moistened absorbent paper towel discs in closed petri dishes. The seeds were incubated at 20C in darkness until germination commenced and then grown in natural diurnal conditions for a further 12 days.
# [5] = system: Wheat plants (Variety AWC 13); assay: Foliar treatment of wheat, foliar and root dry biomass (Example 5); settings: foliar treatment at Zadoks GS 15-20, 30 days after application, mean of 10 plants
# Source text: Wheat plants (Variety AWC 13) were given a foliar treatment of 6-oxo-1,4,5,6-tetrahydropyridazine-3-carboxylic acid(THP) or 1-methyl 6-oxo-1,4,5,6 tetrahydropyridazine-3-carboxylic acid (MTHP) and their foliar and root dry biomass determined 30 days after application. The foliar applications were applied at approximately at Zadoks GS 15-20 (see FIG. 1) and assessed 30 days later at Zadoks GS 22-24 (also shown in FIG. 1).
# Wheat seeds [6] = assay: Wheat seed treatment, germination paper, shoot and root fresh weights (Example 9); settings: pH 5.7-5.8, germination paper 75-85° F; for Shoot fresh weight: Control 27.4; for Roots fresh weight: Control 29.1
# Procedure: Wheat seeds were treated with 6-oxo-1,4,5,6 tetrahydropyridazine-3-carboxylic acid and the shoot and root fresh weights as shown in Table 1. Shoot and root fresh weights at this stage are components of early seedling emergence which is important for early establishment of a vigorous and productive crop. Wheat seeds were treated with a solution of either 0.1 mM or 0.01 mM 6-oxo-1,4,5,6 tetrahydropyridazine-3-carboxylic acid in an aqueous solution at pH 5.7-5.8. The seeds were placed on moist germination paper and allowed to germinate at 75-85° F. The control seeds were imbibed in aqueous solution containing only the soft soap and glycerol.
# [7] = foliar dose 50 g/ha in 200 L/ha
# [8] = foliar dose 100 g/ha in 200 L/ha
# [9] = foliar dose 200 g/ha in 200 L/ha
structure (smiles),measurement,setting,value
"O=C1CCC(C(=O)O)=NN1 [THP, 6-oxo-1,4,5,6 tetrahydropyridazine-3-carboxylic acid]",Dry Weight Shoot,[1]; Con 0.55,0.74 g
same,Dry Weight Root,[1]; Con 1.03,1.45 g
same,Wilted leaves,[2]; seed treatment 0.1 mM,18
same,Total leaves,[2]; seed treatment 0.1 mM,61
same,% Wilted leaves,[2]; seed treatment 0.1 mM,30%
same,Wilted leaves,[2]; seed treatment 0.5 mM,14
same,Total leaves,[2]; seed treatment 0.5 mM,64
same,% Wilted leaves,[2]; seed treatment 0.5 mM,22%
same,Wilted leaves,[2]; seed treatment 1 mM,19
same,Total leaves,[2]; seed treatment 1 mM,57
same,% Wilted leaves,[2]; seed treatment 1 mM,33%
same,"Shoots, Fresh wt.",[3],114.3 mg and 128.6 mg
same,"Root, FWt",Corn; [7],2.7 g
same,"Shoot, FWt",Corn; [7],7.8 g
same,"Root, FWt",Corn; [8],3.4 g
same,"Shoot, FWt",Corn; [8],7.2 g
same,"Root, FWt",Corn; [9],1.8 g
same,"Shoot, FWt",Corn; [9],5.1 g
same,root biomass compared with untreated seeds or Take Off treated seeds,Wheat seeds [4],greater root biomass
same,shoots compared with untreated seeds or Take Off treated seeds,Wheat seeds [4],longer bright green shoots
same,Dry Weight Shoot,[5]; Con 0.47,1.01
same,Dry Weight Root,[5]; Con 0.65,1.5
same,Shoot fresh weight,Wheat seeds [6]; seed treatment 0.01 mM,44.7 mg
same,Roots fresh weight,Wheat seeds [6]; seed treatment 0.01 mM,48.1 mg
same,Shoot fresh weight,Wheat seeds [6]; seed treatment 0.1 mM,42.1 mg
same,Roots fresh weight,Wheat seeds [6]; seed treatment 0.1 mM,43.8 mg

# Source: patent US11800869B2, “Use of 6-oxo-1,4,5,6-tetrahydropyridazine-3-carboxylic acid, 1-methyl 6-oxo-1,4,5,6-tetrahydropyridazine-3-carboxylic acid and 1-alkyl-6-oxo-1,4,5,6-tetrahydropyridazine-3-carboxylic acid for improving growth performance in plants” (Advanced Crop Chem LLP, priority 2020, dated 2023)
